Columns and labels:
Assay in all cases: Dundee kinase panel
Type in all cases: biochemical
Settings in all cases: for remaining activity at 1 µM: read-out: residual activity
CHK2 = molecular target: T1, CHK2 (Homo sapiens, UniProt O96017)
T1 construct: lines 1-140) and Reaction Biology
Protocol: (§1) Compounds were screened at 1 μM. For key hits, pIC50 values were then determined by HTRF as above. […] Stability in mouse and human liver microsomes was determined by Cyprotex.

ERK2 = molecular target: T2, ERK2 (Homo sapiens, UniProt P28482)
T2 construct: lines 1-140) and Reaction Biology
T2 sequence (P28482 whole entry): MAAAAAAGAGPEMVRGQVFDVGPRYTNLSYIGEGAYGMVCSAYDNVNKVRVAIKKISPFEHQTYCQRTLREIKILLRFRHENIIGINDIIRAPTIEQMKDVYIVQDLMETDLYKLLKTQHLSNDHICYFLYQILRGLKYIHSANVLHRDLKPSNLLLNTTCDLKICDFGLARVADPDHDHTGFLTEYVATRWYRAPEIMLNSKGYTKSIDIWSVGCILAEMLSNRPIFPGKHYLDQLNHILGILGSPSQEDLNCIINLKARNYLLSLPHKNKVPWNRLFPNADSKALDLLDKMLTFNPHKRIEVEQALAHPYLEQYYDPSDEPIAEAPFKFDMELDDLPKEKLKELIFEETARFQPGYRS
Protocol: as §1

HER4 = molecular target: T3, HER4 (Homo sapiens, UniProt Q15303)
T3 construct: lines 1-140) and Reaction Biology
T3 sequence (Q15303 26-1308): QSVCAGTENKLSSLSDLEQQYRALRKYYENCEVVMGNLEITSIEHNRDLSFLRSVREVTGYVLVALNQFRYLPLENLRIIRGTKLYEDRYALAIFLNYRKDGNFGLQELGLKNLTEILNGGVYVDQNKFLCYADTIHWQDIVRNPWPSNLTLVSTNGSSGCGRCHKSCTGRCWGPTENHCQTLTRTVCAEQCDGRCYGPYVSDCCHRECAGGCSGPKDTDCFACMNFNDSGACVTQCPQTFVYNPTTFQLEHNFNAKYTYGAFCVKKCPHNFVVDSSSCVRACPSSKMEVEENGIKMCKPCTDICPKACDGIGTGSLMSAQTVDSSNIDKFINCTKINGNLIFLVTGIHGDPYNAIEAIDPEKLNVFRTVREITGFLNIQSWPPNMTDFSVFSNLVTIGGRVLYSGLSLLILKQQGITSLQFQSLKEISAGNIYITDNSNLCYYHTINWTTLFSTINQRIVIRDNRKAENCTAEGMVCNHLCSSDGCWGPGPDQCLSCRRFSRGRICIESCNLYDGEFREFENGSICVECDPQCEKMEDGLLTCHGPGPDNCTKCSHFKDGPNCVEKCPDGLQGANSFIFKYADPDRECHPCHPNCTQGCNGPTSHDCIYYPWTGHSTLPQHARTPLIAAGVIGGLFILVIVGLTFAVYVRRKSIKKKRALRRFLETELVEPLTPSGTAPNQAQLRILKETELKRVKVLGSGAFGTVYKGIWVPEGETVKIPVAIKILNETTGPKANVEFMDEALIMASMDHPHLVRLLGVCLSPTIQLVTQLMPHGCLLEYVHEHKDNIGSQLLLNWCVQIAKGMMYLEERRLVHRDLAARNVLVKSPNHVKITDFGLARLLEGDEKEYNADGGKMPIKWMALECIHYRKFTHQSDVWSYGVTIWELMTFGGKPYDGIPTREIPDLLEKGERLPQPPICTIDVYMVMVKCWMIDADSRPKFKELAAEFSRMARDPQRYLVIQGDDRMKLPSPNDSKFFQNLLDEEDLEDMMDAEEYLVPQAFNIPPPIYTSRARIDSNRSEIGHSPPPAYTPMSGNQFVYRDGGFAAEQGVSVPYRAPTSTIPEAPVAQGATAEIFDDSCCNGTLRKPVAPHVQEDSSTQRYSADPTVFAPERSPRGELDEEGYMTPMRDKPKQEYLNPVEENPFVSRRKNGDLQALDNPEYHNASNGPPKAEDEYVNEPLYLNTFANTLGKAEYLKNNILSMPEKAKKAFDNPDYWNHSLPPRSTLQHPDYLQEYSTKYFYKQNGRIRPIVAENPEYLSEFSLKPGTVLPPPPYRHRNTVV
Protocol: as §1

JNK1 = molecular target: T4, JNK1 (Homo sapiens, UniProt P45983)
T4 construct: lines 1-140) and Reaction Biology
T4 sequence (P45983 whole entry): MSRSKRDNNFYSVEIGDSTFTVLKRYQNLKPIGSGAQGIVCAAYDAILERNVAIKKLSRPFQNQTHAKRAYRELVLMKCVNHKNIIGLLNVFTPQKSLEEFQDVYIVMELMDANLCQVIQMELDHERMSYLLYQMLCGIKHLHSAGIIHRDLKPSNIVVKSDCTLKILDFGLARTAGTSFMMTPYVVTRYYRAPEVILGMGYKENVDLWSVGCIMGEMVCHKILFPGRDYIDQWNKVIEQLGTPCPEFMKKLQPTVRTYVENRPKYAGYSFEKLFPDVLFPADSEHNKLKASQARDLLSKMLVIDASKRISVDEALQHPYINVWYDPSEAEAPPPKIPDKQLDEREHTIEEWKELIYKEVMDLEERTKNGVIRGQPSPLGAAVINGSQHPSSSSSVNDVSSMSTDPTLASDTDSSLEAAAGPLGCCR
Protocol: as §1

LCK = molecular target: T5, LCK (Homo sapiens, UniProt P06239)
T5 construct: lines 1-140) and Reaction Biology
T5 sequence (P06239 whole entry): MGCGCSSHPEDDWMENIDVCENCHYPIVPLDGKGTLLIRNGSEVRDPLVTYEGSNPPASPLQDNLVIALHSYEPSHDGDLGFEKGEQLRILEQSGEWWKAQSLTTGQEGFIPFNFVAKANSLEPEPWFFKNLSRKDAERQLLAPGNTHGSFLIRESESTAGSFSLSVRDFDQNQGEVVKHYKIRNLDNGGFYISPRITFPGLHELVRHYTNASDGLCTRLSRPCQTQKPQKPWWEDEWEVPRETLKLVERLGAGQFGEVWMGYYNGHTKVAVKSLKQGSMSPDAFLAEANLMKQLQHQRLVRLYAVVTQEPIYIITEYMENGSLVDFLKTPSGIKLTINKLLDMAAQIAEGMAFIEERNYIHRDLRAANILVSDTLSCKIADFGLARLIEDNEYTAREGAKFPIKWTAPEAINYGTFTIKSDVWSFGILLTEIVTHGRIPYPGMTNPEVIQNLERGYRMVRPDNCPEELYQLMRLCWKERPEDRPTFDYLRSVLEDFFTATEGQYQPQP
Protocol: as §1

NUAK1 = molecular target: T6, NUAK1 (Homo sapiens, UniProt O60285)
T6 construct: lines 1-140) and Reaction Biology
T6 sequence (O60285 1-661): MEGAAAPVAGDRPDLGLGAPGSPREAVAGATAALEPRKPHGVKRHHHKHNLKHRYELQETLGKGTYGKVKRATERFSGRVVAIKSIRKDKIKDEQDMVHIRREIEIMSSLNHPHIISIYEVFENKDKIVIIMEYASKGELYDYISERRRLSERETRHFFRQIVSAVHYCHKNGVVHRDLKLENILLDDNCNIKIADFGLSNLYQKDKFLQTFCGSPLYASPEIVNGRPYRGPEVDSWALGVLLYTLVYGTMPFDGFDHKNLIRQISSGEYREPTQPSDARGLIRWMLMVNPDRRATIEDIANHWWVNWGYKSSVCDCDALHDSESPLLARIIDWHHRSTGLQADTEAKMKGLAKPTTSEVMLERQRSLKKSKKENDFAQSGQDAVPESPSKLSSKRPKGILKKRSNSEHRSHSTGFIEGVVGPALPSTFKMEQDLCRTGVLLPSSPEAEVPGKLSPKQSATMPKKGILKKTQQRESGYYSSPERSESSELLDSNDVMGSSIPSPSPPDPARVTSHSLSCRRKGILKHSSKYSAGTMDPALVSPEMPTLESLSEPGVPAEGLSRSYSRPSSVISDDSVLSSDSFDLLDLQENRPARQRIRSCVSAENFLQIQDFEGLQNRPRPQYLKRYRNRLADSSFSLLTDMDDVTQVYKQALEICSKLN
Protocol: as §1

PKBb = molecular target: T7, PKBb (Homo sapiens, UniProt P31751)
T7 construct: lines 1-140) and Reaction Biology
T7 sequence (P31751 whole entry): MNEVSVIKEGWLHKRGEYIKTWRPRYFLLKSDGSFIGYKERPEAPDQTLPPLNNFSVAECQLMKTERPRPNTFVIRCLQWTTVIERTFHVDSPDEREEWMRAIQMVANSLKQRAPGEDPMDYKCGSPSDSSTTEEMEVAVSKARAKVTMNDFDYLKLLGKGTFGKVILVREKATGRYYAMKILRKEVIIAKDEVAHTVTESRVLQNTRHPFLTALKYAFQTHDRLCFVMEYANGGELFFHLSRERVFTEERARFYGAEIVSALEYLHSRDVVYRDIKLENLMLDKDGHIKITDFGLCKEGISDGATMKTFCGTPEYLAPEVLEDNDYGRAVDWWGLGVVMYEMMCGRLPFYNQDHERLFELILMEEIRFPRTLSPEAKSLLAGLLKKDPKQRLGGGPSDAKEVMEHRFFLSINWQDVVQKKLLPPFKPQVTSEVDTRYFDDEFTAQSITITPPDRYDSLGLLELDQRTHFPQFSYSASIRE
Protocol: as §1

SYK = molecular target: T8, SYK (Homo sapiens, UniProt P43405)
T8 construct: lines 1-140) and Reaction Biology
Protocol: as §1

SmMLCK = molecular target: T9, SmMLCK (Homo sapiens, UniProt Q15746)
T9 construct: lines 1-140) and Reaction Biology
T9 sequence (Q15746 923-1914): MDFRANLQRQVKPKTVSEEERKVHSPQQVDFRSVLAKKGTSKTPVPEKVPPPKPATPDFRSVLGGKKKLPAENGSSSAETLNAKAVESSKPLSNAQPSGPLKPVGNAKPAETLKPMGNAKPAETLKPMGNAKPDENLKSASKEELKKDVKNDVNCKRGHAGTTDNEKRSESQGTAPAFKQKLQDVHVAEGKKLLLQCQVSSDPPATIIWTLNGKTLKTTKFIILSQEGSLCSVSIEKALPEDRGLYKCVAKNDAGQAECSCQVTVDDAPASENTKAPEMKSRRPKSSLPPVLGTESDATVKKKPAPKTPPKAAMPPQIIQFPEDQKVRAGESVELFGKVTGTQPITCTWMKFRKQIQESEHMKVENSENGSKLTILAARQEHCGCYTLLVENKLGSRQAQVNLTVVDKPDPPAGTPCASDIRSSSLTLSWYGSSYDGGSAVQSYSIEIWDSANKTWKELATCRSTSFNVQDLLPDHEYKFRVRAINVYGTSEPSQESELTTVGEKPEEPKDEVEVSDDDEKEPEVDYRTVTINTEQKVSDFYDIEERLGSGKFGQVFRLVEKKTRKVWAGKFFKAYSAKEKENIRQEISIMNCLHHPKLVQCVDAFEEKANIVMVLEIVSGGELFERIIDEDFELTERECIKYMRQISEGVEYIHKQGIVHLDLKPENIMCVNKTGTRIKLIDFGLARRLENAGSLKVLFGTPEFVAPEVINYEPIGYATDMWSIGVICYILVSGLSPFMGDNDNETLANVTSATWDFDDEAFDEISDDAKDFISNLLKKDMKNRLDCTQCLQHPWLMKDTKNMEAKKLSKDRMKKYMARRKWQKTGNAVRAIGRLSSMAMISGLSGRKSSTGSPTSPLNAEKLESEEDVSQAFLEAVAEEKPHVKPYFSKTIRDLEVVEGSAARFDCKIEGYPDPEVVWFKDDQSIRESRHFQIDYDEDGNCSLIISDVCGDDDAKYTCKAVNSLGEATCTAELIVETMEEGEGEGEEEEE
Protocol: as §1

TAK1 = molecular target: T10, TAK1 (Homo sapiens, UniProt O43318)
T10 construct: lines 1-140) and Reaction Biology
T10 sequence (O43318 1-303 limits assumed): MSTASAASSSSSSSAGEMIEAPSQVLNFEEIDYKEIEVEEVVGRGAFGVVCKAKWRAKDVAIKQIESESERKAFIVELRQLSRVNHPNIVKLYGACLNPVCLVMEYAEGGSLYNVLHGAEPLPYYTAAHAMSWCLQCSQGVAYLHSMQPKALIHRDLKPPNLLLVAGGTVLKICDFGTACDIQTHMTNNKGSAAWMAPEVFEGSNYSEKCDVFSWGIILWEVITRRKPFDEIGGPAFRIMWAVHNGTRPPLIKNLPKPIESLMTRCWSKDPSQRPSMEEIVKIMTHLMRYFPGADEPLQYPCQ
Protocol: as §1

ULK1 = molecular target: T11, ULK1 (Homo sapiens, UniProt O75385)
T11 construct: lines 1-140) and Reaction Biology
T11 sequence (O75385 1-1050): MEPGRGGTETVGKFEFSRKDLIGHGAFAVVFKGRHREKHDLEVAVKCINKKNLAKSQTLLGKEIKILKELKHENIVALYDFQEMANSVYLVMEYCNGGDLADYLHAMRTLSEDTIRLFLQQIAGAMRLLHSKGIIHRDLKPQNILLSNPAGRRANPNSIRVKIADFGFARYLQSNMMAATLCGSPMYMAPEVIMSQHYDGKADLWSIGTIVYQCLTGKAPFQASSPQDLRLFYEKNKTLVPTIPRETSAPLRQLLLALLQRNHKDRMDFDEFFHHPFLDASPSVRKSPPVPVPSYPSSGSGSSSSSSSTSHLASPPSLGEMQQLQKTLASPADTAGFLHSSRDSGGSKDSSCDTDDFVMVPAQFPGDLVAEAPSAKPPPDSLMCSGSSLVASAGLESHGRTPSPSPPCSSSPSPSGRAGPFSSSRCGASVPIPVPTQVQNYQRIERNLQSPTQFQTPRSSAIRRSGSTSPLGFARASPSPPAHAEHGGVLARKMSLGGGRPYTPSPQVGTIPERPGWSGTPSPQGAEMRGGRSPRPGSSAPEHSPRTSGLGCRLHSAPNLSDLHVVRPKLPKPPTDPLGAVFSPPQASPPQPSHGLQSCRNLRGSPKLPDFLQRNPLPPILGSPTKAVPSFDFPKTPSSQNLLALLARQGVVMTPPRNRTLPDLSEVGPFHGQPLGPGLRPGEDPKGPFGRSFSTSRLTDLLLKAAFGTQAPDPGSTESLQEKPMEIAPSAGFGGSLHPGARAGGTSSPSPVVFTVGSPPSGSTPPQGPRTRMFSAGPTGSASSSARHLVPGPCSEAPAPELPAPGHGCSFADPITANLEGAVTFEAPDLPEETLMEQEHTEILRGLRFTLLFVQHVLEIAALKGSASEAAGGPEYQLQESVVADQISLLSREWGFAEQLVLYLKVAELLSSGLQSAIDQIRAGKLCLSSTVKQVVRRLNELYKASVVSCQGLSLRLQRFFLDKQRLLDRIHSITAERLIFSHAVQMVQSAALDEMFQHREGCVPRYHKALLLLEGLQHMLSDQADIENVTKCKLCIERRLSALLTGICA
Protocol: as §1

T1 sequence (O96017 whole entry): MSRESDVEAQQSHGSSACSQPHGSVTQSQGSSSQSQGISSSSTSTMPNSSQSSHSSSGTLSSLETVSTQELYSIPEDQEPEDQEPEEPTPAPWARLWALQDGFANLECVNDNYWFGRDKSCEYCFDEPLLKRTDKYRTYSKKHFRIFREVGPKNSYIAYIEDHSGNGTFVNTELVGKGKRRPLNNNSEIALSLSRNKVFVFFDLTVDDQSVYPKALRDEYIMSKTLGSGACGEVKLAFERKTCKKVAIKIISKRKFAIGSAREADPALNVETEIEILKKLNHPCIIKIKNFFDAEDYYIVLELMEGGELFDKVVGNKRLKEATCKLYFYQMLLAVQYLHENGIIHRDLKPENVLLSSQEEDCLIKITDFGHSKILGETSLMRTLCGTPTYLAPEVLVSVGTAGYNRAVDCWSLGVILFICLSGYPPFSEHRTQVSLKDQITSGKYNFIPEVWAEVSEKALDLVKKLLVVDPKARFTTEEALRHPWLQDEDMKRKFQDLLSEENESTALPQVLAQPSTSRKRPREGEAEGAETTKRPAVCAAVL

Structure (SMILES)	remaining activity at 1 µM (CHK2)	remaining activity at 1 µM (ERK2)	remaining activity at 1 µM (HER4)	remaining activity at 1 µM (JNK1)	remaining activity at 1 µM (LCK)	remaining activity at 1 µM (NUAK1)	remaining activity at 1 µM (PKBb)	remaining activity at 1 µM (SYK)	remaining activity at 1 µM (SmMLCK)	remaining activity at 1 µM (TAK1)	remaining activity at 1 µM (ULK1)	other results
COCCOc1ccc(-c2cn(-c3ccccc3)c3nc[nH]c(=O)c23)cc1 [DMX-5804, 5-[4-(2-methoxy-ethoxy)-phenyl]-7-phenyl-3,7-dihydro-pyrrolo[2,3-d]pyrimidin-4-one]	69%	76%	106%	122%	109%	14%	116%	96%	89%	61%	82%	–
Oc1ncnc2c1c(-c1ccccc1)cn2-c1ccccc1 [F1386-0303, 5,7-diphenyl-7H-pyrrolo[2,3-d]pyrimidin-4-ol]	100%	99%	82%	99%	112%	48%	95%	112%	76%	102%	84%	–
Nc1ncc(C(=O)NC2CN(C(=O)C3CC3)C2)c2ccc(-c3cccc(F)c3)nc12 [GNE-495]	–	–	–	–	–	–	–	–	–	–	–	residual activity (CHK2; 1 μM): 102%; residual activity (ERK2; 1 μM): 104%; residual activity (HER4; 1 μM): 98%; residual activity (JNK1; 1 μM): 63%; residual activity (LCK; 1 μM): 104%; residual activity (NUAK1; 1 μM): 49%; residual activity (PKBb; 1 μM): 99%; residual activity (SYK; 1 μM): 94%; residual activity (SmMLCK; 1 μM): 68%; residual activity (TAK1; 1 μM): 31%; residual activity (ULK1; 1 μM): 110%
O=C1Nc2ccc(I)cc2/C1=C/c1cc(Br)c(O)c(Br)c1 [GW5074]	46%	106%	68%	70%	58%	63%	69%	72%	40%	92%	97%	–
O=C1Cc2c([nH]c3ccc(Br)cc23)-c2ccccc2N1 [Kenpaullone]	25%	124%	85%	100%	–	79%	106%	87%	97%	113%	107%	–

Source: publication PMC6458995, “MAP4K4 Inhibition Promotes Survival of Human Stem Cell-Derived Cardiomyocytes and Reduces Infarct Size In Vivo” (Cell Stem Cell, 2019)
